Data taken from patent publication US8119609B2, “Methods of treating diabetic retinopathy with pericyte apoptosis inhibitors” (Merck Sante, priority 2000, dated 2012).
Where “and” joins values, the source holds several entries; their conditions need not be identical. Equal values may be shown once. Entries after “also recorded” stand apart in the source; their conditions may differ.

Key:
bovine retinal pericytes [1] = experiment: Apoptosis of bovine retinal pericytes cultured with AGE-methylglyoxal, annexin V / propidium iodine staining; format: cell-based
Experimental: The effects of AGE were tested on a uniform batch of cells (bovine retinal pericytes stemming from the same primary culture). When they were at confluence, the bovine retinal pericytes in primary culture were trypsinated. After having allowed them to become attached for 4 hours at 37° C., the medium and the cell debris that had not adhered to the matrix were eliminated and the culture medium (10% of FCS for bovine retinal pericytes) was added. An AGE solution (or its control) was added to the culture medium until reaching a concentration of […] to test the effects of AGE. The cultures were then continued for 1 or 2 passages with the agents, either for 7 or 15 days, respectively, for the bovine retinal pericytes.
Apoptosis was detected and quantified in pericytes cultured during two passages with 2 μM of AGE-methylglyoxal or its control using the technique based on detecting apoptotic cells with annexin V and detecting necrotic cells with propidium iodine.
The presence of phosphatidylserine (PS) on the external layer of the plasma membrane, which is characteristic of apoptotic cells, can be detected using annexin V labeled with fluorescein. This protein has a very strong affinity for PS. Staining is performed in the presence of an intercalating DNA dye, propidium iodine, similar to ethidium bromide to distinguish the apoptotic cells from possibly present necrotic cells which also fix annexin V. For this labeling the pericytes must be subconfluent (75% of confluence) and, thus, cultured for only about 12 days with AGE-methylglyoxal or BSA control.
The bovine retinal pericytes (dish 3.5 cm in diameter) were rinsed three times with PBS then incubated for 10 minutes in the dark with 500 μl of a HEPES buffer containing 10 μl of the fluorescein-labeled annexin V solution and 10 μl of the propidium iodine solution provided in the determination kit. The apoptotic cells as well as the necrotic cells fixed the annexin V and thus appeared green under the fluorescence microscope, but only the nuclei of the necrotic cells were dyed red by the propidium iodine. The percentages of necrotic cells and apoptotic cells were determined on 10 different fields, i.e., on a total of 300 to 800 cells.
Apoptosis was detected and quantified by labeling with annexin V and propidium iodine in bovine retinal pericytes during two passages with 2 μM of AGE-methylglyoxal or their control (see Material and Methods). […] Fluorescein-labeled annexin V stained green the plasma membranes of the apoptotic and necrotic cells, but only the necrotic cells whose cells had lost their integrity, were permeable to propidium iodide which stained their nuclei red. […] The cells were cultured during two passages (approximately 15 days) in the presence of 2 μM of AGE-methylglyoxal or control BSA. The results are expressed as % of apoptotic cells in the total cell population.

bovine retinal pericytes [2] = experiment: Determination of ceramides and diacylglycerols (DAG) in pericytes cultured with AGE-methylglyoxal (DAG-kinase, 32P-ATP); format: cell-based; settings: for % inhibition of the stimulated production of DAG induced by AGE-methylglyoxal / % inhibition of the stimulated production of ceramides induced by AGE-methylglyoxal: two passages
Experimental: The ceramides and diacylglycerols were measured in the pericytes cultured during two passages with […] of AGE-methylglyoxal or their control according to the method described by Preiss et al. (1986). This method is based on the phosphorylation of the ceramides and DAG by purified diacylglycerol kinase (DAG-kinase) from Escherichia coli in the presence of ATP labeled with ^32P on the γ phosphor in accordance with the diagram shown in FIG. 3.
The pericytes (2 or 3 dishes, 6 cm in diameter) were rinsed, recovered by scraping with a rubber policeman in 0.5 ml of water on ice and the dish rinsed by a supplementary 0.5 ml (volume of 1 ml of cell suspension) to which was added 10 μl of a solution of (9,10-^3H)-triacylglycerol at 0.5 μCi/ml.
The total lipids were then extracted by the method of Bligh and Dyer (1959). To this cell suspension (1 ml of PBS) was added 3.75 ml of a chloroform: methanol (2:1, v/v) mixture containing 80 μl of BHT (5 mM) in solution in ethanol. The solutions were then vortexed for 30 seconds and allowed to stand for a minimum of 30 minutes, then 1.25 ml of NaCl (0.9%) and 1.25 ml of chloroform were added to separate the phases. After centrifugation (700 g, 5 minutes), the bottom organic phase was collected and extraction of the aqueous phase was repeated twice with 1.5 ml of chloroform. The lipid extracts were then collected and the chloroform evaporated under a nitrogen stream. The aqueous phase enabled determination of the total proteins by staining with amide black and the organic phase was recovered in an Eppendorf tube then evaporated under nitrogen.
A standard range of ceramides (25 to 2500 ng) and DAG (25 to 25,000 ng) containing the same quantity of tritium-labeled triacylglycerol was prepared in parallel. The lipids were then solubilized in 20 μl of a solution of detergents (7.5% of n-octylglucopyranoside, […] and 1 mM of DETAPAC) by 1 minute of sonication followed by incubation for 15 minutes at ambient temperature. The reaction was started by addition of 50 μl of reaction buffer (imidazole 100 mM, NaCl 100 mM, MgCl2 25 mM, EGTA 2 mM, pH 6.6), 20 μl of a solution of DAG-kinase (4.86 mU) containing 10 mM of DTT and 10 μl of [γ-^32P] ATP at 5 mCi/ml diluted 10-fold in a solution containing 10 mM of unlabeled ATP, 100 mM of imidazole and 1 mM of DETAPAC (pH 6.6). The reaction was allowed to continue for 1 hour at ambient temperature and then stopped by 1 ml of the mixture chloroform:methanol: 1N hydrochloric acid (100:100:1, v/v/v), 170 μl of a buffer containing 10 mM of HEPES, 135 mM of NaCl, 1.5 mM of CaCl2, 0.5 mM of MgCl2 and 5.6 mM of glucose (pH 7.4) then 30 μl of EDTA 100 mM. The mixture was then vortexed, allowed to stand for 15 minutes at ambient temperature, then centrifuged (10,000 g, 5 minutes) at ambient temperature.
The organic phase (bottom) was collected and evaporated under nitrogen. The lipids were then taken up with 300 μl of the mixture ether:methanol (9:1, v/v) and deposited on a silica plate. The ceramides-1-phosphate were separated from the phosphatidic acid and triacylglycerols using the mixture chloroform:methanol: acetic acid (65:15:5, v/v/v) as migration solvent.
Exposure of the silica plate to an autoradiographic film (30 minutes, 80° C.) allowed visualization of the different ^32P-labeled lipids. The spots corresponding to the ceramides-1-phosphate and phosphatidic acid as well as the last 3 cm before the migration front (corresponding to the triacylglycerols) were delimited with a graphite crayon and scratched. The silica was recovered in counting pots, moistened with 200 μl of methanol, 200 μl of distilled water and 2 ml of scintillation liquid (Picofluor) for 2 hours before the addition of 8 ml of the scintillation liquid. The radioactivity emitted by the ^32P or the ^3H was then counted in each pot. The radioactivity emitted by the mother solution of (9,10-^3H)-triacylglycerol was also counted which allowed calculation of the reaction yield for each sample. […]

retina of diabetic rats = settings: cited from earlier work; for loss / disappearance of pericytes in the retina of diabetic rats: literature
[3] = 10 μM, listed as Nα-acetyl-cysteine
[4] = 50 μM, listed as Nα-acetyl-cysteine

## S=C(S)OC1CC2CC1C1CCCC21 (centres unmarked) [D609]
Bovine retinal pericytes [1]; 9.4 μM, two passages
  % inhibition of the apoptosis induced by AGE-methylglyoxal: 40%
Bovine retinal pericytes [1]; 30 μM, two passages
  % inhibition of the apoptosis induced by AGE-methylglyoxal: 47% and 50%
Bovine retinal pericytes [2]; 9.4 μM
  % inhibition of the stimulated production of DAG induced by AGE-methylglyoxal: 80%
  % inhibition of the stimulated production of ceramides induced by AGE-methylglyoxal: 95%
Bovine retinal pericytes [2]; 30 μM
  % inhibition of the stimulated production of DAG induced by AGE-methylglyoxal: 65%
  % inhibition of the stimulated production of ceramides induced by AGE-methylglyoxal: complete inhibition

## CC(=O)N[C@@H](CS)C(=O)O [N-acetyl-L-cysteine, Nα-acetyl-L-cysteine]
Bovine retinal pericytes [1]; 10 μM, two passages
  % inhibition of the apoptosis induced by AGE-methylglyoxal: protected the pericytes against the apoptosis; also recorded: complete inhibition
Bovine retinal pericytes [1]; 10 μM, two passages, listed as Nα-acetyl-cysteine
  % inhibition of the apoptosis induced by AGE-methylglyoxal: normalized
Bovine retinal pericytes [1]; 50 μM, two passages
  % inhibition of the apoptosis induced by AGE-methylglyoxal: protected the pericytes against the apoptosis
Bovine retinal pericytes [1]; 50 μM, two passages, listed as Nα-acetyl-cysteine
  % inhibition of the apoptosis induced by AGE-methylglyoxal: normalized
Bovine retinal pericytes [2]; [3]
  % inhibition of the stimulated production of DAG induced by AGE-methylglyoxal: normalized
  % inhibition of the stimulated production of ceramides induced by AGE-methylglyoxal: normalized
Bovine retinal pericytes [2]; [4]
  % inhibition of the stimulated production of DAG induced by AGE-methylglyoxal: normalized
  % inhibition of the stimulated production of ceramides induced by AGE-methylglyoxal: normalized

## N=C(N)NN [aminoguanidine]
Retina of diabetic rats
  loss / disappearance of pericytes in the retina of diabetic rats: prevents
Retina of diabetic rats; streptozotocin diabetic rat model (Hammes et al., 1991)
  reduction of the number of acellular capillaries in the retina: 80%

## Nc1ncc(-c2ccc(O)cc2)nc1Cc1ccccc1 [coelenteramine]
Bovine retinal pericytes [1]; 2 μM, two passages
  % inhibition of the apoptosis induced by AGE-methylglyoxal: 60% and ~50%

## CNCCCN1c2ccccc2CCc2ccccc21 [desipramine, 10,11-dihydro-5-(3-(methylamino)propyl)-5H-dibenz(b,f)azepine]
Bovine retinal pericytes [1]; 0.3 μM (b168 prints 0.3 mM), two passages
  % inhibition of the apoptosis induced by AGE-methylglyoxal: 50%
Bovine retinal pericytes [1]; 1 μM (results not shown)
  baseline apoptosis rate of the control cells: affected
Bovine retinal pericytes [1]; Bos taurus, 0.1 μM, two passages, read-out: % inhibition of the apoptosis induced by AGE-methylglyoxal
  inhibition at 0.1 µM: 35%
Bovine retinal pericytes [1]; Bos taurus, 0.3 μM (b168 prints 0.3 mM), two passages, read-out: % inhibition of the apoptosis induced by AGE-methylglyoxal
  inhibition at 0.3 µM: 35%
Bovine retinal pericytes [2]; 0.1 μM
  % inhibition of the stimulated production of DAG induced by AGE-methylglyoxal: 17%
  % inhibition of the stimulated production of ceramides induced by AGE-methylglyoxal: 78%
Bovine retinal pericytes [2]; 0.3 μM
  % inhibition of the stimulated production of DAG induced by AGE-methylglyoxal: 13%
  % inhibition of the stimulated production of ceramides induced by AGE-methylglyoxal: 95%
Bovine retinal pericytes [2]; 1 μM (results not shown)
  baseline levels of the ceramides and DAG in the cells cultured with BSA control: affected

## O=c1c2ccccc2[se]n1-c1ccccc1 [ebselen]
Bovine retinal pericytes [1]; Bos taurus, 5 μM, two passages, read-out: % inhibition of the apoptosis induced by AGE-methylglyoxal
  inhibition at 5 µM: 94%
Bovine retinal pericytes [1]; Bos taurus, 10 μM, two passages, read-out: % inhibition of the apoptosis induced by AGE-methylglyoxal
  inhibition at 10 µM: 88%

## CCCC[C@@H](C)[C@@H](OC(=O)C[C@@H](CC(=O)O)C(=O)O)[C@H](C[C@@H](C)C[C@H](O)CCCC[C@@H](O)C[C@H](O)[C@H](C)N)OC(=O)C[C@@H](CC(=O)O)C(=O)O [fumonisin B1]
Bovine retinal pericytes [1]; 0.01 μM, two passages
  % inhibition of the apoptosis induced by AGE-methylglyoxal: 22%
Bovine retinal pericytes [1]; 0.01 μM, two passages, listed as Fumonisin B1, 0.01 µM
  % inhibition of the apoptosis induced by AGE-methylglyoxal: 20%
Bovine retinal pericytes [1]; 0.1 μM (results not shown)
  effect on the base apoptosis rate of cells cultured in BSA control: proapoptotic

## Cc1c(C)c2c(c(C)c1O)CCC(C)(C(=O)O)O2 (centres unmarked) [trilox]
Retina of diabetic rats
  loss / disappearance of pericytes in the retina of diabetic rats: prevent

## CC1=C(/C=C/C(C)=C/C=C/C(C)=C/C=C/C=C(C)/C=C/C=C(C)/C=C/C2=C(C)C[C@@H](O)CC2(C)C)C(C)(C)C[C@H](O)C1 [zeaxanthin]
Bovine retinal pericytes [1]; 2 μM, two passages
  % inhibition of the apoptosis induced by AGE-methylglyoxal: 50%

## z-DEVD-fmk
Bovine retinal pericytes [1]; 50 μM, two passages
  % inhibition of the apoptosis induced by AGE-methylglyoxal: almost total inhibition
Bovine retinal pericytes [2]; 50 μM
  % inhibition of the stimulated production of DAG induced by AGE-methylglyoxal: not affected
  % inhibition of the stimulated production of ceramides induced by AGE-methylglyoxal: not affected

## z-LEHD-fmk
Bovine retinal pericytes [1]; 50 μM, two passages
  % inhibition of the apoptosis induced by AGE-methylglyoxal: almost total inhibition
Bovine retinal pericytes [2]; 50 μM
  % inhibition of the stimulated production of DAG induced by AGE-methylglyoxal: not affected
  % inhibition of the stimulated production of ceramides induced by AGE-methylglyoxal: not affected

## z-VAD-fmk
Bovine retinal pericytes [1]; 50 μM, two passages
  % inhibition of the apoptosis induced by AGE-methylglyoxal: almost total inhibition
Bovine retinal pericytes [2]; 50 μM
  % inhibition of the stimulated production of DAG induced by AGE-methylglyoxal: 100%
  % inhibition of the stimulated production of ceramides induced by AGE-methylglyoxal: 75%

## z-VDVAD-fmk
Bovine retinal pericytes [1]; 50 μM, two passages
  % inhibition of the apoptosis induced by AGE-methylglyoxal: partial inhibition
Bovine retinal pericytes [1]; 50 μM, two passages, listed as z-VDVAD
  % inhibition of the apoptosis induced by AGE-methylglyoxal: partially inhibits
